In assay [1] the test system is phosphorylation of Akt at Serine 473 in U87 MG cells. The assay is described as follows: cells. The note with it: Homo sapiens, U-87 MG, 2 h, read-out: U87Cell IC50, pAkt (Ser 473), U87 MG cells, two hours with compound.
Protocol: pAkt Aplhascreen (U87 Cell)
This assay was performed using U87 MG cells. […] The cells were maintained weekly using 0.05% Trypsin (Gibco) and replated in 150 mm TC—Treated Culture Dishes (Corning, Corning, N.Y.).
The first day of the assay, the adherent cells were trypsinized, media was added to the loose cells and cells were mixed to a homogenous mixture. 0.5 ml of the homogenous mixture was counted on the Beckman Coulter® Vi-CELL™ XR (Fullerton, Calif.). 50 frames of cells were counted and the number of viable cells was determined. The cells were then diluted to 0.25 million cells per ml, and centrifuged at 200 rcf for 5 minutes. The media was removed and the cells were reconstituted in fresh media for plating. The cells were plated at 20 μl per well on the PerkinElmer® FlexDrop PLUS in Low Volume 384 Well White Tissue Culture Plates (Corning) with a final cell density of 5K cells per well. The plates were incubated overnight at 37° Celsius, 5% CO2.
After two hours, the media in the cell plates was aspirated using the BioTek® ELx405HT plate washer (Winooski, Vt.) removing the majority of media and compound without disturbing the adherent U87 cells. […] The plates were then incubated at room temperature on a shaker for ten minutes. […] The AlphaScreen® reaction was added to the cell lysate at 6 μl per well using the PerkinElmer® FlexDrop PLUS. The plates were placed in a humid environment to reduce edge effects and incubated overnight at room temperature with restricted air flow in the dark.
The target in a further assay is PI3Kα (Homo sapiens (Human), UniProt P42336). Conditions: read-out: PI3Kα AlphaScreen ® Ki. For orientation: Alpha assays give light when donor and acceptor beads are brought close together.

The values that follow come from patent publication US8772480B2, “Inhibitors of PI3 kinase and/or mTOR” (priority 2009, dated 2014).

pIC50, pKi: −log10 of the molar value.

Usually pIC50 stands for the negative decadic logarithm of the IC50, by convention in mol/L. Broadly, the pKi is −log10 of the Ki, conventionally taken in molar units.

Sequence of PI3Kα (P42336 whole entry): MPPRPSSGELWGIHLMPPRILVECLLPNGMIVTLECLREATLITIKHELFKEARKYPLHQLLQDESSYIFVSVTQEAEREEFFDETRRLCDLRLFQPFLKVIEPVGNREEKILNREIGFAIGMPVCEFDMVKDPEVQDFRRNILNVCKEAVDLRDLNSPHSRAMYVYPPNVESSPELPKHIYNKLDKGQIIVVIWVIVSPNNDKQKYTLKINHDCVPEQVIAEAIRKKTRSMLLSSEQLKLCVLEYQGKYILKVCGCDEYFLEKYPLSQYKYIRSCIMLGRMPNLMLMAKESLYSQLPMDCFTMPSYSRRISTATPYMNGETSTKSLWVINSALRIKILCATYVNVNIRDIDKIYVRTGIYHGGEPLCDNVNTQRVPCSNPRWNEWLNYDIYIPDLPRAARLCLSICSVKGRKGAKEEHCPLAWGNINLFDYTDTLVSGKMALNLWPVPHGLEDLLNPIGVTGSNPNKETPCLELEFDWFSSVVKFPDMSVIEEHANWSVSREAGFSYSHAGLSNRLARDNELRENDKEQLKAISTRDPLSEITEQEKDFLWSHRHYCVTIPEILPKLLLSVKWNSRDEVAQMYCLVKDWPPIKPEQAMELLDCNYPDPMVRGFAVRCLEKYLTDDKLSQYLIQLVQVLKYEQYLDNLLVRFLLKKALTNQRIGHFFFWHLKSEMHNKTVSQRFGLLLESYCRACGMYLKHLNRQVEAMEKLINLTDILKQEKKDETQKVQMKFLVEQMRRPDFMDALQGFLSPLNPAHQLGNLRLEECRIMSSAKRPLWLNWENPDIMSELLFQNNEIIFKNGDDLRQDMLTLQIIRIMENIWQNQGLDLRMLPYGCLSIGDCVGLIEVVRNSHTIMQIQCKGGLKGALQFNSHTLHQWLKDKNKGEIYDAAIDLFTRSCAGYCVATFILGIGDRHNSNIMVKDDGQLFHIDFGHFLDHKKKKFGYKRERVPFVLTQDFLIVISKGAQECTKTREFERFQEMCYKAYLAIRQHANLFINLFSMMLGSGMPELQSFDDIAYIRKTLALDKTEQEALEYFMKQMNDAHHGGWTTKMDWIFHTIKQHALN
Sequence of PI3Kα (P27986 whole entry partner): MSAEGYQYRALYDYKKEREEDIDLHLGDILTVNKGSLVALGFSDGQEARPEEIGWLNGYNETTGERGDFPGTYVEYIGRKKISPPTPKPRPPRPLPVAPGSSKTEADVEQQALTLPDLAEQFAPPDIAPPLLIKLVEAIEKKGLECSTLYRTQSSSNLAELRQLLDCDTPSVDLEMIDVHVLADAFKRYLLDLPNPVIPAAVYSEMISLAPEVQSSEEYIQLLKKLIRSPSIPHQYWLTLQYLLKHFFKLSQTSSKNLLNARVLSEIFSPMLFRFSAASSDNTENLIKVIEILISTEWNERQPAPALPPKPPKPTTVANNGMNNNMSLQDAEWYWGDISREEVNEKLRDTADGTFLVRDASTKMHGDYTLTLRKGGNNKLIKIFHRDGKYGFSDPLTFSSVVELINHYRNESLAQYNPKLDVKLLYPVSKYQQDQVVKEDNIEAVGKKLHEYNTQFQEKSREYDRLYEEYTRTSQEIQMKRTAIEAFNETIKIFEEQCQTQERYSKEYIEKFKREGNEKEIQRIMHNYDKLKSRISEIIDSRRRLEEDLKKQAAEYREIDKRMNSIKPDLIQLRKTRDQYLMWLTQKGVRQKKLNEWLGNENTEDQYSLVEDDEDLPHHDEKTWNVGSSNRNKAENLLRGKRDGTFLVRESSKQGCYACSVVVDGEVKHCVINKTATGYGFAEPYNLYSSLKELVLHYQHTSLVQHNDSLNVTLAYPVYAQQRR

As to `COc1ccc(Nc2ncc(-c3ccccn3)cc2-c2nc(C)nc(N)n2)cn1` [Example 172, 5′-(4-Amino-6-Methyl-1,3,5-Triazin-2-yl)-N-(6-Methoxypyridin-3-yl)-2,3′-Bipyridin-6′-Amine], the negative logarithm of the IC50 (pIC50) in assay [1] was 7.24. On PI3Kα, the pKi was 8.22.

As for `COc1ncc(Nc2ncccc2-c2nc(C)nc(N)n2)cc1Cl` [Example 173, 4-(2-(5-Chloro-6-Methoxypyridin-3-Ylamino)Pyridin-3-yl)-6-Methyl-1,3,5-Triazin-2-Amine], the pIC50 in assay [1] is 6.45. In addition, at PI3Kα, the negative-log Ki (pKi) was 7.22.

Consider `Cc1cncc(Nc2ncccc2-c2nc(C)nc(N)n2)c1` [Example 174, 4-Methyl-6-(2-(5-Methylpyridin-3-Ylamino)Pyridin-3-yl)-1,3,5-Triazin-2-Amine], for which the pIC50 in assay [1] was below 5.00. Besides, at PI3Kα, the pKi is 6.34.

For the molecule `COc1ncc(Nc2nc(-c3ccncc3)ccc2-c2nc(C)nc(N)n2)cc1F` [Example 175, 5-(4-Amino-6-Methyl-1,3,5-Triazin-2-yl)-N-(5-Fluoro-6-Methoxypyridin-3-yl)-2,4′-Bipyridin-6-Amine], in assay [1], the pIC50 is below 5.00. Further, on PI3Kα, the pKi is 7.20.

Consider `COc1ncc(Nc2ncc(C(=O)N3CCC(O)CC3)cc2-c2nc(C)nc(N)n2)cc1F` [Example 176, (5-(4-amino-6-methyl-1,3,5-triazin-2-yl)-6-(5-fluoro-6-methoxypyridin-3-ylamino)pyridin-3-yl)(4-hydroxypiperidin-1-yl)methanone], for which the pIC50 in assay [1] was 6.87. The pKi on PI3Kα was 7.36.

As to `COc1ccc(Nc2ncc(CN3CCN(S(C)(=O)=O)CC3)cc2-c2cc(N)nc(C)n2)cn1` [Example 178, 6-(2-(6-Methoxypyridin-3-Ylamino)-5-((4-(Methylsulfonyl)Piperazin-1-yl)Methyl)Pyridin-3-yl)-2-Methylpyrimidin-4-Amine], the pIC50 in assay [1] is 7.30. Further, the pKi on PI3Kα is 8.22.

`Cc1nc(N)cc(-c2nc3ccccc3nc2Nc2cccc3[nH]ncc23)n1` [Example 180, 3-(6-Amino-2-Methylpyrimidin-4-yl)-N-(1H-Indazol-4-yl)Quinoxalin-2-Amine]: the pIC50 in assay [1] was 5.80. Besides, the pKi at PI3Kα was 6.91.

In the case of `CC(=O)Nc1ccc(Nc2ncccc2-c2nc(C)nc3[nH]cnc23)cc1Cl` [Example 181, N-(2-Chloro-4-(3-(2-Methyl-9H-Purin-6-yl)Pyridin-2-Ylamino)Phenyl)Acetamide], in assay [1], the pIC50 was 6.25. Moreover, the pKi at PI3Kα is 6.12.

Take `COc1cncc(Nc2ncccc2-c2nc(C)nc3[nH]cnc23)c1` [Example 183, N-(5-Methoxypyridin-3-yl)-3-(2-Methyl-9H-Purin-6-yl)Pyridin-2-Amine]: the pIC50 in assay [1] is 6.35. Moreover, the pKi on PI3Kα was 7.59.

Take `Cc1nc(N)nc(-c2cc(F)cnc2Nc2cncc(F)c2)n1` [Example 186, 4-(5-Fluoro-2-(5-Fluoropyridin-3-Ylamino)Pyridin-3-yl)-6-Methyl-1,3,5-Triazin-2-Amine]: the pIC50 in assay [1] was below 5.00. Besides, the negative-log Ki (pKi) on PI3Kα is 6.07.

With `COc1ncc(Nc2ncc(C=O)cc2-c2nc(C)nc(N)n2)cc1F` [Example 187, 5-(4-Amino-6-Methyl-1,3,5-Triazin-2-yl)-6-(5-Fluoro-6-Methoxypyridin-3-Ylamino)Nicotinaldehyde], the negative logarithm of the IC50 (pIC50) in assay [1] was 7.74. On PI3Kα, the pKi is 7.89.

In the case of `Cc1nc(N)nc(-c2cc(Cl)cnc2NC2CCOCC2)n1` [Example 188, 4-(5-Chloro-2-(Tetrahydro-2H-Pyran-4-Ylamino)Pyridin-3-yl)-6-Methyl-1,3,5-Triazin-2-Amine], the pIC50 in assay [1] is below 5.00. Further, the negative logarithm of the Ki (pKi) at PI3Kα was 5.68.

For `COCCNc1nc(C)nc(-c2cc(Cl)cnc2Nc2cnc(OC)c(F)c2)n1` [Example 189, 4-(5-Chloro-2-(5-Fluoro-6-Methoxypyridin-3-Ylamino)Pyridin-3-yl)-N-(2-Methoxyethyl)-6-Methyl-1,3,5-Triazin-2-Amine], the pIC50 in assay [1] was below 5.00. For the same molecule, the pKi at PI3Kα is 6.39.

With `Cc1nc(N)nc(-c2cccnc2Nc2ccc(NC(=O)NC(C)C)nc2)n1` [Example 192, 1-(5-(3-(4-Amino-6-Methyl-1,3,5-Triazin-2-yl)Pyridin-2-Ylamino)Pyridin-2-yl)-3-Isopropylurea], the pIC50 in assay [1] was 6.03. Moreover, on PI3Kα, the pKi was 6.16.

For `COCCOc1ccc(NC(=O)Nc2ccc(Nc3ncc(Cl)cc3-c3nc(C)nc(N)n3)cn2)cc1` [Example 195, 1-(5-(3-(4-Amino-6-Methyl-1,3,5-Triazin-2-yl)-5-Chloropyridin-2-Ylamino)Pyridin-2-yl)-3-(4-(2-Methoxyethoxy)Phenyl)Urea], in assay [1], the pIC50 was below 5.00. Besides, the pKi at PI3Kα was 7.80.

For the molecule `CC(=O)Nc1ccc(Nc2ncc(CN3CCN(S(C)(=O)=O)CC3)cc2-c2nc(C)nc(N)n2)cn1` [Example 196, N-(5-(3-(4-Amino-6-Methyl-1,3,5-Triazin-2-yl)-5-((4-(Methylsulfonyl)Piperazin-1-yl)Methyl)Pyridin-2-Ylamino)Pyridin-2-yl)Acetamide], the pIC50 in assay [1] is 6.49. The pKi at PI3Kα is 7.28.

For the molecule `COc1ncc(Nc2nc(C)ccc2-c2nc(C)nc(N)n2)cc1F` [Example 197, 4-(2-(5-Fluoro-6-Methoxypyridin-3-Ylamino)-6-Methylpyridin-3-yl)-6-Methyl-1,3,5-Triazin-2-Amine], the negative logarithm of the IC50 (pIC50) in assay [1] was 6.68. In addition, the pKi on PI3Kα is 7.48.

In the case of `COc1ncc(Nc2nc(CN3CCOCC3)ccc2-c2nc(C)nc(N)n2)cc1F` [Example 198, 4-(2-(5-Fluoro-6-Methoxypyridin-3-Ylamino)-6-(Morpholinomethyl)Pyridin-3-yl)-6-Methyl-1,3,5-Triazin-2-Amine], the pIC50 in assay [1] is 6.66. For the same molecule, at PI3Kα, the pKi is 6.56.

With `COc1ncc(Nc2nc(COCC(F)(F)F)ccc2-c2nc(C)nc(N)n2)cc1F` [Example 199, 4-(2-(5-Fluoro-6-Methoxypyridin-3-Ylamino)-6-((2,2,2-Trifluoroethoxy)Methyl)Pyridin-3-yl)-6-Methyl-1,3,5-Triazin-2-Amine], the pIC50 in assay [1] is 6.64. For the same molecule, at PI3Kα, the negative-log Ki (pKi) was 7.17.

`Cc1ccc(-c2nc(C)nc(N)n2)c(Nc2cncc(F)c2)n1` [Example 200, 4-(2-(5-Fluoropyridin-3-Ylamino)-6-Methylpyridin-3-yl)-6-Methyl-1,3,5-Triazin-2-Amine]: the pIC50 in assay [1] is below 5.00. Moreover, the pKi at PI3Kα was 6.74.

For `COc1ccc(Nc2ncc(CN3CCSCC3)cc2-c2nc(C)nc(N)n2)cn1` [Example 201, 4-(2-(6-Methoxypyridin-3-Ylamino)-5-(Thiomorpholinomethyl)Pyridin-3-yl)-6-Methyl-1,3,5-Triazin-2-Amine], in assay [1], the pIC50 is 7.18. In addition, the negative logarithm of the Ki (pKi) on PI3Kα was 7.03.

As for `COc1ccc(Nc2ncc(CN3CC[S+]([O-])CC3)cc2-c2nc(C)nc(N)n2)cn1` [Example 202, 4-(2-(6-Methoxypyridin-3-Ylamino)-5-(1-Sulfoxidemorpholinomethyl)Pyridin-3-yl)-6-Methyl-1,3,5-Triazin-2-Amine], in assay [1], the pIC50 is 6.91. Besides, the pKi at PI3Kα was 6.83.

Consider `Cc1nc(N)nc(-c2cc(CN3CCN(S(C)(=O)=O)CC3)cnc2Nc2cnc3c(c2)ncn3C)n1` [Example 203, N-(3-(4-Amino-6-Methyl-1,3,5-Triazin-2-yl)-5-((4-(Methylsulfonyl)Piperazin-1-yl)Methyl)Pyridin-2-yl)-3-Methyl-3H-Imidazo[4,5-B]Pyridin-6-Amine], for which, in assay [1], the negative-log IC50 (pIC50) was 6.25. Also, the pKi at PI3Kα was 7.80.

As to `COc1ccc(Nc2ncc(N3CC[C@H](CO)C3)cc2-c2nc(C)nc3[nH]cnc23)cn1` [Example 204, ((3S)-1-(6-((6-Methoxy-3-Pyridinyl)Amino)-5-(2-Methyl-9H-Purin-6-yl)-3-Pyridinyl)-3-Pyrrolidinyl)Methanol], in assay [1], the pIC50 was 6.36. The pKi at PI3Kα was 7.40.

Consider `COc1ccc(Nc2ncc(N3CC[C@H](O)C3)cc2-c2nc(C)nc3[nH]cnc23)cn1` [Example 205, (3S)-1-(6-((6-Methoxy-3-Pyridinyl)Amino)-5-(2-Methyl-9H-Purin-6-yl)-3-Pyridinyl)-3-Pyrrolidinol], for which the pIC50 in assay [1] is 6.42. For the same molecule, the pKi on PI3Kα is 7.33.

`COc1ccc(Nc2ncc(N3CC[C@@H](O)C3)cc2-c2nc(C)nc3[nH]cnc23)cn1` [Example 206, (3R)-1-(6-((6-Methoxy-3-Pyridinyl)Amino)-5-(2-Methyl-9H-Purin-6-yl)-3-Pyridinyl)-3-Pyrrolidinol]: in assay [1], the pIC50 was 6.41. Further, at PI3Kα, the pKi is 7.17.

In the case of `COc1ccc(Nc2ncc(CN3CCOC[C@@H]3C)cc2-c2nc(C)nc(N)n2)cn1` [Example 219, (S)-4-(2-(6-Methoxypyridin-3-Ylamino)-5-((3-Methylmorpholino)Methyl)Pyridin-3-yl)-6-Methyl-1,3,5-Triazin-2-Amine], in assay [1], the pIC50 was 6.53. Moreover, the negative-log Ki (pKi) at PI3Kα is 7.03.

Consider `COc1ccc(Nc2ncc(CN3CC(S(C)(=O)=O)C3)cc2-c2nc(C)nc(N)n2)cn1` [Example 223, 4-(2-(6-Methoxypyridin-3-Ylamino)-5-((3-(Methylsulfonyl)Azetidin-1-yl)Methyl)Pyridin-3-yl)-6-Methyl-1,3,5-Triazin-2-Amine], for which, in assay [1], the pIC50 is 7.55. The pKi on PI3Kα is 8.22.

`COc1ccc(Nc2ncc(CNCCO)cc2-c2nc(C)nc(N)n2)cn1` [Example 225, 2-((5-(4-Amino-6-Methyl-1,3,5-Triazin-2-yl)-6-(6-Methoxypyridin-3-Ylamino)Pyridin-3-yl)Methylamino)Ethanol]: in assay [1], the pIC50 is 6.56. Moreover, the pKi at PI3Kα was 6.87.

Take `COc1ccc(Nc2ncc(CN[C@H](C)CO)cc2-c2nc(C)nc(N)n2)cn1` [Example 226, (R)-2-((5-(4-Amino-6-Methyl-1,3,5-Triazin-2-yl)-6-(6-Methoxypyridin-3-Ylamino)Pyridin-3-yl)Methylamino)Propan-1-ol]: in assay [1], the pIC50 is 6.24. The negative-log Ki (pKi) at PI3Kα is 6.45.

Consider `COc1ccc(Nc2ncc(CN3CC(O)C3)cc2-c2nc(C)nc(N)n2)cn1` [Example 229, 1-((5-(4-Amino-6-Methyl-1,3,5-Triazin-2-yl)-6-(6-Methoxypyridin-3-Ylamino)Pyridin-3-yl)Methyl)Azetidin-3-ol], for which the pIC50 in assay [1] was 6.56. Besides, at PI3Kα, the pKi is 7.23.
